Consider 25 compounds from patent US20250382293A1, “COMPOUNDS AND METHODS FOR YAP/TEAD MODULATION AND INDICATIONS THEREFOR” (OPNA BIO SA, priority 2023, published 2025).

In the test the test system is TEAD-dependent transcription. Kind of test: Inhibitor activity against TEAD-dependent transcription in a cell-based reporter assay (MSTO-211H+12XGTIIC luciferase). To be noted: Homo sapiens; MSTO-211H+12XGTIIC cells, 24 hours compound incubation, luminescence normalized to cell viability signal; read-out: MSTO-211H GMean IC50 (uM) Cell Assay Reporter Cell Variant: TEAD. An excerpt: Determine Inhibitor Activity Against TEAD-Dependent Transcription in a Cell-Based Reporter Assay
The human mesothelioma cell line MSTO-211H was stably transfected with a pGL4.21 plasmid containing a synthetic promoter with 12 copies of the GTIIC TEAD response element that drives the expression of a luciferase reporter gene 1 using Lipofectamine transfection reagent (Thermo Fisher). Transfected cells were selected using puromycin and single cell clones expressing this construct (referred to as MSTO-211H+12XGTIIC) were generated by limiting dilution. MSTO-211H cells was characterized by genetic alterations in key components of the Hippo pathway^2, resulting in up-regulation of YAP/TEAD-mediated transcription. […] To evaluate TEAD inhibitors, the MSTO-211H+12XGTIIC cell line was seeded in a 96-well plate in 50 μL of culture media at 1×10^4 cells per well and incubated at 37° C. overnight. Serial dilutions of compounds (in total volume of 50 μL of culture media) were added to the cells and incubated at 37° C. for 24 hours. Each plate included cells treated with DMSO as high controls and cells treated with 20 μM of the reference compound K-975 (a known TEAD inhibitor) 3 as low controls. Cell viability was assayed by the addition of 25 μL of CellTiter-Fluor reagent (Promega) followed by a 30-minute incubation at 37° C. and quantification of the fluorescence signal (Ex400/Em505). Subsequently, luciferase expression was assayed by the addition of 25 μL of ONE-Glo reagent (Promega) followed by a 10-minute incubation at room temperature and quantification of the luminescence signal. The luminescence signal was normalized to the fluorescence signal to correct for any loss in cell viability over the 24-hour compound incubation period. The percentage of inhibition of normalized luminescence signal, indicative of compound-mediated inhibition of TEAD-dependent transcription, at individual compound concentrations relative to high and low controls was calculated. The data were analyzed by using nonlinear regression to generate IC50 values for individual compounds.
As to `C=CC(=O)N1CC(N2CCc3c(cccc3Oc3ccc(C(F)(F)F)cc3)C2)C1` [O-0119, 1-(3-(5-(4-(trifluoromethyl)phenoxy)-3,4-dihydroisoquinolin-2(1H)-yl)azetidin-1-yl)prop-2-en-1-one], the IC50 is 0.001 to 10 µM.

As for `O=S(=O)(N1CCC(N2CCc3c(cccc3Oc3ccc(C(F)(F)F)cc3)C2)C1)C(F)(F)F` (stereo not shown) [O-0112, 5-(4-(trifluoromethyl)phenoxy)-2-(1-((trifluoromethyl)sulfonyl)pyrrolidin-3-yl)-1,2,3,4-tetrahydroisoquinoline.], the IC50 lay within 0.001 to 10 µM.

With `O=S(=O)(c1ccccc1)N1CCc2cc(Oc3ccc(C(F)(F)F)cc3)ccc2C1` [O-0104, 2-(phenylsulfonyl)-6-(4-(trifluoromethyl)phenoxy)-1,2,3,4-tetrahydroisoquinoline], the IC50 fell in the range of 10 to 100 µM.

For the compound `CS(=O)(=O)N1CC(N2CCc3c(cccc3Oc3ccc(C(F)(F)F)cc3)C2)C1` [O-0115, 2-(1-(methylsulfonyl)azetidin-3-yl)-5-(4-(trifluoromethyl)phenoxy)-1,2,3,4-tetrahydroiso-quinoline], the IC50 was 0.001 to 10 µM. Regarding `C=CC(=O)N1CCC(N2CCc3c(cccc3Oc3ccc(C(F)(F)F)cc3)C2)CC1` [O-0123, 1-(4-(5-(4-(trifluoromethyl)phenoxy)-3,4-dihydroisoquinolin-2(1H)-yl)piperidin-1-yl)prop-2-en-1-one], the IC50 lay within 0.001 to 10 µM. As to `O=S(=O)(N1CC(N2CCc3c(cccc3Oc3ccc(C(F)(F)F)cc3)C2)C1)C(F)(F)F` [O-0116, 5-(4-(trifluoromethyl)phenoxy)-2-(1-((trifluoromethyl)sulfonyl)azetidin-3-yl)-1,2,3,4-tetrahydroisoquinoline], the IC50 lay within 0.001 to 10 µM. As for `C=CS(=O)(=O)N1CCC(N2CCc3c(cccc3Oc3ccc(C(F)(F)F)cc3)C2)CC1` [O-0122, 5-(4-(trifluoromethyl)phenoxy)-2-(1-(vinylsulfonyl)piperidin-4-yl)-1,2,3,4-tetrahydroisoquinoline], the figure is 10 to 100 µM; as for `C=CC(=O)N1CCC(N2CCc3c(cccc3Oc3ccc(C(F)(F)F)cc3)C2)C1` (stereo not shown) [O-0114, 1-(3-(5-(4-(trifluoromethyl)phenoxy)-3,4-dihydroisoquinolin-2(1H)-yl)pyrrolidin-1-yl)prop-2-en-1-one], 0.001 to 10 µM; as for `CS(=O)(=O)N1CCCC(N2CCc3c(cccc3Oc3ccc(C(F)(F)F)cc3)C2)C1` (stereo not shown) [O-0111, 2-(1-(methylsulfonyl)piperidin-3-yl)-5-(4-(trifluoromethyl)phenoxy)-1,2,3,4-tetrahydroisoquinoline], 0.001 to 10 µM. Regarding `C=CS(=O)(=O)N1CCC(N2CCc3c(cccc3Oc3ccc(C(F)(F)F)cc3)C2)C1` (stereo not shown) [O-0113, 5-(4-(trifluoromethyl)phenoxy)-2-(1-(vinylsulfonyl)pyrrolidin-3-yl)-1,2,3,4-tetrahydroisoquinoline], the IC50 lay within 0.001 to 10 µM. As for `CS(=O)(=O)Nc1nc(C(=O)N2CCc3c(cccc3Oc3ccc(C(F)(F)F)cc3)C2)cs1` [O-0110, N-(4-(5-(4-(trifluoromethyl)phenoxy)-1,2,3,4-tetrahydroisoquinoline-2-carbonyl)thiazol-2-yl)methanesulfonamide], the figure is 0.001 to 10 µM. As for `CS(=O)(=O)Nc1nc(C(=O)N2CCc3c(cccc3Oc3ccc(C(F)(F)F)c(F)c3)C2)co1` [O-0106, N-(4-(5-(3-fluoro-4-(trifluoromethyl)phenoxy)-1,2,3,4-tetrahydroisoquinoline-2-carbonyl)oxazol-2-yl)methanesulfonamide], the IC50 was 10 to 100 µM. The value for `C=CS(=O)(=O)N1CC(N2CCc3c(cccc3Oc3ccc(C(F)(F)F)cc3)C2)C1` [O-0118, 5-(4-(trifluoromethyl)phenoxy)-2-(1-(vinylsulfonyl)azetidin-3-yl)-1,2,3,4-tetrahydroisoquinoline.] was 10 to 100 µM. As for `CS(=O)(=O)N1CCC(N2CCc3c(cccc3Oc3ccc(C(F)(F)F)cc3)C2)CC1` [O-0120, 2-(1-(methylsulfonyl)piperidin-4-yl)-5-(4-(trifluoromethyl)phenoxy)-1,2,3,4-tetrahydroisoquinoline], the figure is 0.001 to 10 µM; as for `CCCNS(=O)(=O)c1nc(C(=O)N2CCc3c(cccc3Oc3ccc(C(F)(F)F)cc3)C2)cs1` [O-0105, N-propyl-4-(5-(4-(trifluoromethyl)phenoxy)-1,2,3,4-tetrahydroisoquinoline-2-carbonyl)thiazole-2-sulfonamide], 0.001 to 10 µM; as for `CS(=O)(=O)Nc1nc(C(=O)N2CCc3c(cccc3Oc3ccc(C(F)(F)F)c(F)c3)C2)cs1` [O-0109, N-(4-(5-(3-fluoro-4-(trifluoromethyl)phenoxy)-1,2,3,4-tetrahydroisoquinoline-2-carbonyl)thiazol-2-yl)methanesulfonamide], 10 to 100 µM. For the compound `CNS(=O)(=O)c1nc(C(=O)N2CCc3c(cccc3Oc3ccc(C(F)(F)F)cc3)C2)cs1` [O-0107, N-methyl-4-(5-(4-(trifluoromethyl)phenoxy)-1,2,3,4-tetrahydroisoquinoline-2-carbonyl)thiazole-2-sulfonamide], the IC50 was 0.001 to 10 µM. As for `O=C(c1c[nH]c(C(F)(F)F)n1)N1CCc2cc(Oc3ccc(C(F)(F)F)cc3)ccc2C1` [O-0074, (2-(trifluoromethyl)-1H-imidazol-4-yl)(6-(4-(trifluoromethyl)phenoxy)-3,4-dihydroisoquinolin-2(1H)-yl)methanone], the IC50 lay in the range of 0.001 to 10 µM. The value for `C=CS(=O)(=O)N1CCc2cc(Oc3ccc(C(F)(F)F)cc3)ccc2C1` [O-0064, 6-(4-(trifluoromethyl)phenoxy)-2-(vinylsulfonyl)-1,2,3,4-tetrahydroisoquinoline] was 0.001 to 10 µM. The value for `O=C(CCl)N1CCc2cc(Oc3ccc(C(F)(F)F)cc3)ccc2C1` [O-0070, 2-chloro-1-(6-(4-(trifluoromethyl)phenoxy)-3,4-dihydroisoquinolin-2(1H)-yl)ethan-1-one] was 0.001 to 10 µM. As for `O=C(CCS(=O)(=O)C(F)(F)F)N1CCc2c(ncnc2Oc2ccc(C(F)(F)F)cc2)C1` [O-0003, 1-(4-(4-(trifluoromethyl)phenoxy)-5,8-dihydropyrido[3,4-d]pyrimidin-7(6H)-yl)-3-((trifluoromethyl)sulfonyl)propan-1-one], the figure is 0.001 to 10 µM; as for `O=S(=O)(N1CCC(N2CCc3c(cccc3Oc3ccc(C(F)(F)F)cc3)C2)CC1)C(F)(F)F` [O-0121, 5-(4-(trifluoromethyl)phenoxy)-2-(1-((trifluoromethyl)sulfonyl)piperidin-4-yl)-1,2,3,4-tetrahydroisoquinoline], 0.001 to 10 µM. Consider `CCNS(=O)(=O)c1nc(C(=O)N2CCc3c(cccc3Oc3ccc(C(F)(F)F)cc3)C2)cs1` [O-0108, N-ethyl-4-(5-(4-(trifluoromethyl)phenoxy)-1,2,3,4-tetrahydroisoquinoline-2-carbonyl)thiazole-2-sulfonamide], for which the IC50 lay in the range of 0.001 to 10 µM. The value for `C=CC(=O)N1CCc2cc(Oc3ccc(C(F)(F)F)cc3)ccc2C1` [O-0058, 1-(6-(4-(trifluoromethyl)phenoxy)-3,4-dihydroisoquinolin-2(1H)-yl)prop-2-en-1-one] was 0.001 to 10 µM; that for `O=C(CCS(=O)(=O)C(F)(F)F)N1CCc2c(cccc2Oc2ccc(C(F)(F)F)nc2)C1` [O-0002, 1-(5-((6-(trifluoromethyl)pyridin-3-yl)oxy)-3,4-dihydroisoquinolin-2(1H)-yl)-3-((trifluoromethyl)sulfonyl)propan-1-one] was 0.001 to 10 µM.

What is called IC50 is the concentration at which inhibition is half-maximal.
